Assay results published in patent US9469650B2, “Melampomagnolide B derivatives” (BOARD OF TRUSTEES OF THE UNIVERSITY OF ARKANSAS, priority 2013, dated 2016).

Experiments:
SF-295 = test: panel of 60 human tumor cell lines, growth inhibition (CNS Cancer); conditions: SF-295
DU-145 = test: panel of 60 human tumor cell lines, growth inhibition (Prostate Cancer); conditions: DU-145
CAKI-1 = test: panel of 60 human tumor cell lines, growth inhibition (Renal Cancer); conditions: CAKI-1
PC-3 = test: panel of 60 human tumor cell lines, growth inhibition (Prostate Cancer); conditions: PC-3
A498 = test: panel of 60 human tumor cell lines, growth inhibition (Renal Cancer); conditions: A498
NCI-H522 = test: panel of 60 human tumor cell lines, growth inhibition (Non-Small Cell Lung Cancer); conditions: NCI-H522
HOP-62 = test: as above; conditions: HOP-62
U251 = test: panel of 60 human tumor cell lines, growth inhibition (CNS Cancer); conditions: U251
HS 578T = test: panel of 60 human tumor cell lines, growth inhibition (Breast Cancer); conditions: for Percent Growth: HS 57BT
NCI-H226 = test: panel of 60 human tumor cell lines, growth inhibition (Non-Small Cell Lung Cancer); conditions: NCI-H226
OVCAR-5 = test: panel of 60 human tumor cell lines, growth inhibition (Ovarian Cancer); conditions: OVCAR-5
LOX IMVI = test: panel of 60 human tumor cell lines, growth inhibition (Melanoma)
786-0 = test: panel of 60 human tumor cell lines, growth inhibition (Renal Cancer); conditions: 786-0
SF-268 = test: panel of 60 human tumor cell lines, growth inhibition (CNS Cancer); conditions: SF-268
K-562 = test: panel of 60 human tumor cell lines, growth inhibition (Leukemia); conditions: K-562
COLO 205 = test: panel of 60 human tumor cell lines, growth inhibition (Colon Cancer); conditions: COLO 205
M14 = test: panel of 60 human tumor cell lines, growth inhibition (Melanoma); conditions: M14
NCI/ADR-RES = test: panel of 60 human tumor cell lines, growth inhibition (Ovarian Cancer)
SW-620 = test: panel of 60 human tumor cell lines, growth inhibition (Colon Cancer); conditions: SW-620

## C=C1C(=O)O[C@H]2[C@H]1CC/C(COC(=O)N1CCN(C)CC1)=C\CC[C@@]1(C)O[C@@H]21 [JVM 2-44]
SF-295
  GI50: 70.7 µM
  TGI: >1.00E−4
SF-295; Log10 Concentration −4.0
  Mean Optical Densities: 1.767
  Percent Growth: 43%
SF-295; Log10 Concentration −5.0
  Mean Optical Densities: 2.724
  Percent Growth: 87%
SF-295; Log10 Concentration −6.0
  Mean Optical Densities: 2.913
  Percent Growth: 96%
SF-295; Log10 Concentration −7.0
  Mean Optical Densities: 2.707
  Percent Growth: 87%
SF-295; Log10 Concentration −8.0
  Mean Optical Densities: 2.920
  Percent Growth: 96%
DU-145
  GI50: 3.98 µM
  TGI: 1.44E−5
DU-145; Log10 Concentration −4.0
  Mean Optical Densities: 0.835
  Percent Growth: −93%
DU-145; Log10 Concentration −5.0
  Mean Optical Densities: 0.750
  Percent Growth: 17%
DU-145; Log10 Concentration −6.0
  Mean Optical Densities: 1.844
  Percent Growth: 99%
DU-145; Log10 Concentration −7.0
  Mean Optical Densities: 1.845
  Percent Growth: 99%
DU-145; Log10 Concentration −8.0
  Mean Optical Densities: 1.839
  Percent Growth: 99%
CAKI-1
  GI50: 4 µM
  TGI: 1.67E−5
CAKI-1; Log10 Concentration −4.0
  Mean Optical Densities: 0.032
  Percent Growth: −95%
CAKI-1; Log10 Concentration −5.0
  Mean Optical Densities: 1.287
  Percent Growth: 27%
CAKI-1; Log10 Concentration −6.0
  Mean Optical Densities: 2.593
  Percent Growth: 84%
CAKI-1; Log10 Concentration −7.0
  Mean Optical Densities: 2.649
  Percent Growth: 87%
CAKI-1; Log10 Concentration −8.0
  Mean Optical Densities: 2.814
  Percent Growth: 94%
PC-3
  GI50: 21.8 µM
  TGI: 4.89E−5
PC-3; Log10 Concentration −4.0
  Mean Optical Densities: 0.340
  Percent Growth: −44%
PC-3; Log10 Concentration −5.0
  Mean Optical Densities: 1.854
  Percent Growth: 98%
PC-3; Log10 Concentration −6.0
  Mean Optical Densities: 1.917
  Percent Growth: 103%
PC-3; Log10 Concentration −7.0
  Mean Optical Densities: 1.899
  Percent Growth: 102%
PC-3; Log10 Concentration −8.0
  Mean Optical Densities: 1.916
  Percent Growth: 103%
A498
  GI50: 10.2 µM
  TGI: 3.47E−5
A498; Log10 Concentration −4.0
  Mean Optical Densities: 0.967
  Percent Growth: −43%
A498; Log10 Concentration −5.0
  Mean Optical Densities: 2.150
  Percent Growth: 51%
A498; Log10 Concentration −6.0
  Mean Optical Densities: 2.296
  Percent Growth: 67%
A498; Log10 Concentration −7.0
  Mean Optical Densities: 2.301
  Percent Growth: 68%
A498; Log10 Concentration −8.0
  Mean Optical Densities: 2.357
  Percent Growth: 74%
NCI-H522
  GI50: 1.54 µM
  TGI: 3.55E−5
NCI-H522; Log10 Concentration −4.0
  Mean Optical Densities: 0.194
  Percent Growth: −78%
NCI-H522; Log10 Concentration −5.0
  Mean Optical Densities: 0.338
  Percent Growth: −62%
NCI-H522; Log10 Concentration −6.0
  Mean Optical Densities: 1.747
  Percent Growth: 76%
NCI-H522; Log10 Concentration −7.0
  Mean Optical Densities: 1.925
  Percent Growth: 92%
NCI-H522; Log10 Concentration −8.0
  Mean Optical Densities: 1.900
  Percent Growth: 89%
HOP-62
  GI50: 27.3 µM
  TGI: >1.00E−4
HOP-62; Log10 Concentration −4.0
  Mean Optical Densities: 0.936
  Percent Growth: 7%
HOP-62; Log10 Concentration −5.0
  Mean Optical Densities: 2.007
  Percent Growth: 83%
HOP-62; Log10 Concentration −6.0
  Mean Optical Densities: 2.174
  Percent Growth: 95%
HOP-62; Log10 Concentration −7.0
  Mean Optical Densities: 2.046
  Percent Growth: 86%
HOP-62; Log10 Concentration −8.0
  Mean Optical Densities: 2.193
  Percent Growth: 96%
U251
  GI50: 18.7 µM
  TGI: 4.08E−5
U251; Log10 Concentration −4.0
  Mean Optical Densities: 0.206
  Percent Growth: −58%
U251; Log10 Concentration −5.0
  Mean Optical Densities: 1.893
  Percent Growth: 90%
U251; Log10 Concentration −6.0
  Mean Optical Densities: 2.002
  Percent Growth: 97%
U251; Log10 Concentration −7.0
  Mean Optical Densities: 2.003
  Percent Growth: 97%
U251; Log10 Concentration −8.0
  Mean Optical Densities: 2.013
  Percent Growth: 98%
HS 578T
  GI50: 16.7 µM
  TGI: >1.00E−4
HS 578T; Log10 Concentration −4.0
  Percent Growth: 5%
  Mean Optical Densities: 1.235
HS 578T; Log10 Concentration −5.0
  Percent Growth: 63%
  Mean Optical Densities: 1.827
HS 578T; Log10 Concentration −6.0
  Percent Growth: 90%
  Mean Optical Densities: 2.096
HS 578T; Log10 Concentration −7.0
  Percent Growth: 86%
  Mean Optical Densities: 2.057
HS 578T; Log10 Concentration −8.0
  Percent Growth: 90%
  Mean Optical Densities: 2.099
NCI-H226
  GI50: 12.4 µM
  TGI: 3.73E−5
NCI-H226; Log10 Concentration −4.0
  Mean Optical Densities: 0.601
  Percent Growth: −45%
NCI-H226; Log10 Concentration −5.0
  Mean Optical Densities: 2.002
  Percent Growth: 60%
NCI-H226; Log10 Concentration −6.0
  Mean Optical Densities: 2.540
  Percent Growth: 95%
NCI-H226; Log10 Concentration −7.0
  Mean Optical Densities: 2.533
  Percent Growth: 94%
NCI-H226; Log10 Concentration −8.0
  Mean Optical Densities: 2.561
  Percent Growth: 96%
OVCAR-5
  GI50: 13.4 µM
  TGI: 3.03E−5
OVCAR-5; Log10 Concentration −4.0
  Mean Optical Densities: 0.201
  Percent Growth: −73%
OVCAR-5; Log10 Concentration −5.0
  Mean Optical Densities: 1.240
  Percent Growth: 68%
OVCAR-5; Log10 Concentration −6.0
  Mean Optical Densities: 1.400
  Percent Growth: 89%
OVCAR-5; Log10 Concentration −7.0
  Mean Optical Densities: 1.404
  Percent Growth: 90%
OVCAR-5; Log10 Concentration −8.0
  Mean Optical Densities: 1.415
  Percent Growth: 91%
LOX IMVI
  GI50: 12.4 µM
  TGI: 2.63E−5
LOX IMVI; Log10 Concentration −4.0
  Mean Optical Densities: 0.051
  Percent Growth: −89%
LOX IMVI; Log10 Concentration −5.0
  Mean Optical Densities: 1.794
  Percent Growth: 64%
LOX IMVI; Log10 Concentration −6.0
  Percent Growth: 96%
LOX IMVI; Log10 Concentration −7.0
  Mean Optical Densities: 2.419
  Percent Growth: 94%
LOX IMVI; Log10 Concentration −8.0
  Mean Optical Densities: 2.424
  Percent Growth: 94%
786-0
  GI50: 6.53 µM
  TGI: 2.42E−5
786-0; Log10 Concentration −4.0
  Mean Optical Densities: 0.194
  Percent Growth: −64%
786-0; Log10 Concentration −5.0
  Mean Optical Densities: 1.194
  Percent Growth: 40%
786-0; Log10 Concentration −6.0
  Mean Optical Densities: 2.074
  Percent Growth: 94%
786-0; Log10 Concentration −7.0
  Mean Optical Densities: 2.022
  Percent Growth: 91%
786-0; Log10 Concentration −8.0
  Mean Optical Densities: 2.113
  Percent Growth: 96%
SF-268
  GI50: 13.5 µM
  TGI: 3.19E−5
SF-268; Log10 Concentration −4.0
  Mean Optical Densities: 0.188
  Percent Growth: −66%
SF-268; Log10 Concentration −5.0
  Mean Optical Densities: 1.432
  Percent Growth: 67%
SF-268; Log10 Concentration −6.0
  Mean Optical Densities: 1.625
  Percent Growth: 97%
SF-268; Log10 Concentration −7.0
  Mean Optical Densities: 1.839
  Percent Growth: 9B
SF-268; Log10 Concentration −8.0
  Mean Optical Densities: 1.843
  Percent Growth: 99%
K-562
  GI50: 4.25 µM
  TGI: 2.82E−5
K-562; Log10 Concentration −4.0
  Mean Optical Densities: 0.152
  Percent Growth: −25%
K-562; Log10 Concentration −5.0
  Mean Optical Densities: 0.394
  Percent Growth: 21%
K-562; Log10 Concentration −6.0
  Mean Optical Densities: 1.109
  Percent Growth: 99%
K-562; Log10 Concentration −7.0
  Mean Optical Densities: 1.030
  Percent Growth: 91%
K-562; Log10 Concentration −8.0
  Mean Optical Densities: 1.141
  Percent Growth: 103%
COLO 205
  GI50: 4.44 µM
  TGI: 1.76E−5
COLO 205; Log10 Concentration −4.0
  Mean Optical Densities: 0.159
  Percent Growth: −67%
COLO 205; Log10 Concentration −5.0
  Mean Optical Densities: 0.767
  Percent Growth: 22%
COLO 205; Log10 Concentration −6.0
  Mean Optical Densities: 1.790
  Percent Growth: 101%
COLO 205; Log10 Concentration −7.0
  Mean Optical Densities: 1.715
  Percent Growth: 95%
COLO 205; Log10 Concentration −8.0
  Mean Optical Densities: 1.784
  Percent Growth: 100%
M14
  GI50: 8.89 µM
  TGI: 2.58E−5
M14; Log10 Concentration −4.0
  Mean Optical Densities: 0.178
  Percent Growth: −68%
M14; Log10 Concentration −5.0
  Mean Optical Densities: 1.229
  Percent Growth: 48%
M14; Log10 Concentration −6.0
  Mean Optical Densities: 1.877
  Percent Growth: 94%
M14; Log10 Concentration −7.0
  Mean Optical Densities: 1.848
  Percent Growth: 91%
M14; Log10 Concentration −8.0
  Mean Optical Densities: 1.953
  Percent Growth: 99%
NCI/ADR-RES
  GI50: 24.6 µM
  TGI: >1.00E−4
NCI/ADR-RES; Log10 Concentration −4.0
  Mean Optical Densities: 0.606
  Percent Growth: 1%
NCI/ADR-RES; Log10 Concentration −5.0
  Mean Optical Densities: 1.819
  Percent Growth: 82%
NCI/ADR-RES; Log10 Concentration −6.0
  Mean Optical Densities: 2.094
  Percent Growth: 100%
NCI/ADR-RES; Log10 Concentration −7.0
  Mean Optical Densities: 2.049
  Percent Growth: 97%
NCI/ADR-RES; Log10 Concentration −8.0
  Mean Optical Densities: 2.060
  Percent Growth: 98%
SW-620
  GI50: 3.67 µM
  TGI: 1.49E−5
SW-620; Log10 Concentration −4.0
  Mean Optical Densities: 0.080
  Percent Growth: −78%
SW-620; Log10 Concentration −5.0
  Mean Optical Densities: 0.753
  Percent Growth: 16%
SW-620; Log10 Concentration −6.0
  Mean Optical Densities: 2.599
  Percent Growth: 94%
SW-620; Log10 Concentration −7.0
  Mean Optical Densities: 2.683
  Percent Growth: 97%
SW-620; Log10 Concentration −8.0
  Mean Optical Densities: 2.698
  Percent Growth: 98%
